Entries after “also recorded” stand apart in the source; their conditions may differ.
Columns and labels:
[1] = test system: primary B-cells from Trp53−/− mice; assay: Viability of activated primary B-cells; format: cell-based, mouse; conditions: 100 nM, 4-day activation
Description: Cell death mediated by C-1523 is p53-dependent. It was hypothesized that AID-dependent cytotoxicity induced by C-1523 would be associated with p53-mediated apoptosis. To test the importance of p53, a central regulator of cellular responses to DNA damage, viability was measured in mouse primary B-cells from Trp53+/+ versus Trp53−/− mice following exposure to C-1523. […] Caspase 3 activation, a marker of apoptotic cell death, was measured in C-1523 treated B-cells. B-cells were stained with an antibody that recognizes cleaved, activated caspase-3 (AC3) and the number of AC3-positive cells was measured via immunofluorescence microscopy. Following 10 Gy of ionizing irradiation Trp53+/+(WT), but not Trp53−/− cultures show a >30-fold increase in the percentage of AC3+ cells, confirming Trp53 dependent apoptosis in these cells after DNA damage. […] In order to more completely rule out apoptosis as the mode of cell death following C-1523 treatment in B cells, the expression of other common markers of apoptotic induction was examined via Western Blot.
Cell lines and cell culture. […] Immunofluorescence.

[2] = test system: primary WT mouse splenic B cells; assay: H2AX foci immunostaining in activated B-lymphocytes; format: cell-based; conditions: 100 nM
Description: FIG. 15A depicts an analysis of primary WT (AID+/+, closed markers) and AID−/− (open markers) murine B cell proliferation under activating conditions (αCD40 and IL-4 on days 0 and 2) and treated with the indicated doses of C-1523 for 4 days. Measurement of cell proliferation was determined by Trypan Blue staining and counting of viable, non-staining, cells via hemocytometer. Data are represented as the mean cell count for each condition. FIG. 15B depicts data from experiments in which primary B cells from A were stained with PI on day 4 and analyzed via flow cytometry for the percentage of cells that were non-viable, PI-positive (PI+). FIG. 15C depicts RT-PCR analysis of AID expression in cultured human cell lines. Water (H2O) and RNA from HEK293T cells were employed as negative controls for template and AID expression, respectively, and human activated B lymphocyte RNA (Stim B) was used as a positive control. GAPDH expression was included as a loading control. […] Viability was determined by Trypan Blue staining and counting via hemocytometer. […] FIG. 15F depicts quantitation of foci observed in AID−/− and WT cells represented in FIG. 15E. […]
To determine whether the cytotoxic effect of C-1523 in AID-expressing cells was associated with DNA damage overload, the accumulation of unrepaired AID-initiated DSBs was measured by H2AX immunoostaining, in activated mouse B-lymphocytes (FIGS. 15E, 15F). […]

AID+/+ or AID−/− B-cells = assay: Cell cycle analysis by propidium iodide staining and flow cytometry; format: cell-based; conditions: 100 nM, up to 96 hours
Description: (§1) AID+/+ or AID−/− B-cells were cultured with 100 nM and cell cycle profiles were determined by propidium iodide staining and flow cyotmetry at intervals up to 96 hours. Non-activated (CD40) cells were used as a negative control; activated cells treated with the microtuble poison colcemid (ACT+colcemid) were used as a positive control.
as §1, with “control. Nuclei fragmentation analysis of primary, AID expressing B-cells treated with 100 nM C-1523 was conducted (FIG. 22).” for “control.”

[3] = test system: primary splenic B-cells from AID−/− mice; assay: Expansion and viability of activated primary splenic B-cells; conditions: 50-250 nM, four days, αCD40+IL-4 activation

What does the source list for `CC(=O)Nc1ccc(/C=C/c2ccc(NC(=S)NC(C)C)cc2S(=O)(=O)O)c(S(=O)(=O)O)c1` [C-1523, (E)-5-acetamido-2-(4-(3-isopropylthioureido)-2-sulfonatostyryl)benzenesulfonate]?
viability [1]: did not show reduced viability; fraction of cells with supernumerary foci (3-10 per cell) [2]: significant increase; H2AX foci ([2]; αCD40 and IL-4): accumulation of H2AX foci; effect on cell cycle (AID+/+ or AID−/− B-cells): minimal effect on cell cycle; also recorded: minimal differences; cellular expansion [3]: expanded identically to vehicle-treated controls

Source: patent US10927075B2, “Compositions and methods relating to the treatment of cancer, autoimmune disease, and neurodegenerative disease” (THE JACKSON LABORATORY, priority 2014, dated 2021)
